What all share (assay type): biochemical
Common to all, as to settings: 3 μM; percent of control kinase activity

One test deals with Blk(m) (Mus musculus, UniProt P16277). Briefly: Blk(m) kinase assay. The procedure: (§1) Six compounds (presumptive single agents) were tested against a panel of 50 kinases. The results are presented in Table 2; numbers for each kinase indicate the percent of control kinase activity in the presence of a 3μM concentration of the indicated agent.
(§2) Agents that target two or more different kinases are useful in the methods of the invention as described elsewhere herein. Such compounds may be identified, and their effect on certain kinases may be identified, using the assays briefly described below in Examples 4-83. Each of these assays was carried out as described in Davies et al., Biochem. J., 351:95-105 (2000). All assays were carried out at 10 μM ATP unless otherwise noted.
(§3) In a final reaction volume of 25 μl, Blk (m) (5-10 mU) is incubated with 50 mM Tris pH 7.5, 0.1 mM EGTA, 0.1 mM NaVanadate, 0.1% β-mercaptoethanol, 0.1 mg/ml poly(Glu, Tyr) 4:1, 10 mM MgAcetate and [γ-^33P-ATP] (specific activity approx. 500 cpm/pmol, concentration as required). The reaction is initiated by the addition of Mg^2+ [γ-^33P-ATP]. After incubation for 40 minutes at room temperature, the reaction is stopped by the addition of 5 μl of a 3% phosphoric acid solution. 10 μl of the reaction is then spotted onto a Filtermat A and washed three times for 5 minutes in 75 mM phosphoric acid and once in methanol prior to drying and scintillation counting.

The next test addresses p70S6K(h) (Homo sapiens, UniProt P23443). Nature of the test: p70S6K(h) kinase assay. The procedure: as §1, §2
as §3, with “μl, p70S6K (h)” for “μl, Blk (m)”, “with 8” for “with 50”, “mM MOPS” for “mM Tris”, “pH 7.0, 0.2” for “pH 7.5, 0.1”, “mM EDTA, 100 μM […] (SEQ ID NO:9),” for “mM EGTA, 0.1 mM NaVanadate, 0.1% β-mercaptoethanol, 0.1 mg/ml poly(Glu, Tyr) 4:1,”, “a P30 filtermat” for “a Filtermat A”

In the next test the target is PAK2(h) (Homo sapiens, UniProt Q13177). Nature of the test: PAK2(h) kinase assay. As for the experimental part: as §1, §2
as §3, with “μl, PAK2(h)” for “μl, Blk (m)”, “with 8” for “with 50”, “mM MOPS” for “mM Tris”, “pH 7.0, 0.2” for “pH 7.5, 0.1”, “mM EDTA, 30 μM […] (SEQ ID NO:8),” for “mM EGTA, 0.1 mM NaVanadate, 0.1% β-mercaptoethanol, 0.1 mg/ml poly(Glu, Tyr) 4:1,”, “a P30 filtermat” for “a Filtermat A”

Another test concerns the target T1, PDK1(h) (Homo sapiens, UniProt O15530).
T1 sequence (O15530 1-556): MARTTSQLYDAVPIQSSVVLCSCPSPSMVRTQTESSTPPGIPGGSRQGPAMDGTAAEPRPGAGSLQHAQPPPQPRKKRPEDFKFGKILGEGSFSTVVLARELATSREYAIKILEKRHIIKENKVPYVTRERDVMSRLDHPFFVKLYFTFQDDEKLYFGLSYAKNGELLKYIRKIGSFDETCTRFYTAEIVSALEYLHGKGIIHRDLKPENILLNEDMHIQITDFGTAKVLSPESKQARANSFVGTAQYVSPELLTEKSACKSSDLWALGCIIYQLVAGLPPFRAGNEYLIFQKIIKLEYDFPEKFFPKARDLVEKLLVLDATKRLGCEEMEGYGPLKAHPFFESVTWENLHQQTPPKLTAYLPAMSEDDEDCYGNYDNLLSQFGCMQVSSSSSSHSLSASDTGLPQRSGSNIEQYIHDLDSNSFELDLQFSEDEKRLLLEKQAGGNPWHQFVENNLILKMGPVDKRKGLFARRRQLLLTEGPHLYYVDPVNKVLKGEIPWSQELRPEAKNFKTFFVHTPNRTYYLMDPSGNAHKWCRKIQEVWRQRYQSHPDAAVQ
Briefly: PDK1(h) kinase assay. The procedure: as §1, §2
as §3, with “PDK1 (h)” for “Blk (m)”, “100 μM […] (SEQ ID NO:13) (PDKtide),” for “0.1 mM EGTA, 0.1 mM NaVanadate,”, “β-mercaptoethanol,” for “β-mercaptoethanol, 0.1 mg/ml poly(Glu, Tyr) 4:1,”, “P30 filtermat” for “Filtermat A”

For a further test, the target named is PRK2(h) (Homo sapiens, UniProt Q16513). Briefly: PRK2(h) kinase assay. As for the experimental part: as §1, §2
as §3, with “PRK2 (h)” for “Blk (m)”, “EGTA,” for “EGTA, 0.1 mM NaVanadate,”, “30 μM […] (SEQ ID NO:12),” for “0.1 mg/ml poly(Glu, Tyr) 4:1,”, “P30 filtermat” for “Filtermat A”

Sequence of PAK2(h) (Q13177 whole entry): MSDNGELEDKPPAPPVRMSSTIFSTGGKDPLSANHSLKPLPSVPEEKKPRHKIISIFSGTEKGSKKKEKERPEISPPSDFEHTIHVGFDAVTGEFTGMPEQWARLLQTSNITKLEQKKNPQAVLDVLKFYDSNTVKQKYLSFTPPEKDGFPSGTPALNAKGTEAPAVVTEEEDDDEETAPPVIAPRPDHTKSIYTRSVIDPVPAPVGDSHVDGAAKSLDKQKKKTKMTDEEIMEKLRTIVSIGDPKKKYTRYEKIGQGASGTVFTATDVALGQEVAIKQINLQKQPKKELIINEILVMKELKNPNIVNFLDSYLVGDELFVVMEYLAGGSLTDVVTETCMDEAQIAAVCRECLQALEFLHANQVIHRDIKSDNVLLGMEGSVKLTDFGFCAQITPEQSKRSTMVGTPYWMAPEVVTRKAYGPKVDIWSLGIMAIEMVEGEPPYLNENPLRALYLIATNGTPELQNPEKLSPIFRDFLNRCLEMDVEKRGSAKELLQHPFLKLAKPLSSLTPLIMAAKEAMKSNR
Sequence of Blk(m) (P16277 whole entry): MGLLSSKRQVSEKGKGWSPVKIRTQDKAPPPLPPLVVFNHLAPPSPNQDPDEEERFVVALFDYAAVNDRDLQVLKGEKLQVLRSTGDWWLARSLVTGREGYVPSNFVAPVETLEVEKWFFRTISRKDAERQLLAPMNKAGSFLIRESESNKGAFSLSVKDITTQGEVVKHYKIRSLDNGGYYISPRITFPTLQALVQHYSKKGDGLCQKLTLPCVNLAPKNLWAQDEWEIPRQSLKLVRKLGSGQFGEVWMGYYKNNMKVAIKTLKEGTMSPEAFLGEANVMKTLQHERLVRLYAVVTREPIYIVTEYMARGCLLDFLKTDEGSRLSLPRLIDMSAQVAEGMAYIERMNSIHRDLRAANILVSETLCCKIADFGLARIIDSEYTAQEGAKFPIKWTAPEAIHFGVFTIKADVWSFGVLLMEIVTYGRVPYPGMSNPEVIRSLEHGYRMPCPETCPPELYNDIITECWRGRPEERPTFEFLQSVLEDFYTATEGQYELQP
Sequence of PRK2(h) (Q16513 whole entry): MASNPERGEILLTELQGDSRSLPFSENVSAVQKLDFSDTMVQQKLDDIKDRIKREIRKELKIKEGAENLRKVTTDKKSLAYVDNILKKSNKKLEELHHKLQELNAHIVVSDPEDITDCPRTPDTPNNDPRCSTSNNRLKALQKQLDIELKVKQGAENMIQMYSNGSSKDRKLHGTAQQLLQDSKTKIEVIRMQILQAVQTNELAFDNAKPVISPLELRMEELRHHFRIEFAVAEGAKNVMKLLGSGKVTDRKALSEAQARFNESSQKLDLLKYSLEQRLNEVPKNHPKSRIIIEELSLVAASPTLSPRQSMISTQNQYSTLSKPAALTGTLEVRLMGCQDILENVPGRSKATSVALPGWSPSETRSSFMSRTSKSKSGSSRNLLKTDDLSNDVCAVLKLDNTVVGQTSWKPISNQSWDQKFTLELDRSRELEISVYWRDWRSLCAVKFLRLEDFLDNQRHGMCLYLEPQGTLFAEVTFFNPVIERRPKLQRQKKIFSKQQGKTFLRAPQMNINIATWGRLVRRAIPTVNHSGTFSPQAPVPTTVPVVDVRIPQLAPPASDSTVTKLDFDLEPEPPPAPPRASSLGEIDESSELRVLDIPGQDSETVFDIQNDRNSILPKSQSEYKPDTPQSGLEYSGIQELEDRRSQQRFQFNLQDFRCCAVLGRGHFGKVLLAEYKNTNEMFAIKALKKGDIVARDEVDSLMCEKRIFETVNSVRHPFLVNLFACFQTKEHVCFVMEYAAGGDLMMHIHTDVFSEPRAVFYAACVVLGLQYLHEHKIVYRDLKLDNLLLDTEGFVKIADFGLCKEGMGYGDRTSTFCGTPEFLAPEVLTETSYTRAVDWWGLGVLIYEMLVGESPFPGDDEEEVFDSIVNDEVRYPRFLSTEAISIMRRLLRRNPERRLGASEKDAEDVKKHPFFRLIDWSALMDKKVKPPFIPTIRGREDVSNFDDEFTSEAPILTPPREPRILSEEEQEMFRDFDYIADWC
Sequence of p70S6K(h) (P23443 whole entry): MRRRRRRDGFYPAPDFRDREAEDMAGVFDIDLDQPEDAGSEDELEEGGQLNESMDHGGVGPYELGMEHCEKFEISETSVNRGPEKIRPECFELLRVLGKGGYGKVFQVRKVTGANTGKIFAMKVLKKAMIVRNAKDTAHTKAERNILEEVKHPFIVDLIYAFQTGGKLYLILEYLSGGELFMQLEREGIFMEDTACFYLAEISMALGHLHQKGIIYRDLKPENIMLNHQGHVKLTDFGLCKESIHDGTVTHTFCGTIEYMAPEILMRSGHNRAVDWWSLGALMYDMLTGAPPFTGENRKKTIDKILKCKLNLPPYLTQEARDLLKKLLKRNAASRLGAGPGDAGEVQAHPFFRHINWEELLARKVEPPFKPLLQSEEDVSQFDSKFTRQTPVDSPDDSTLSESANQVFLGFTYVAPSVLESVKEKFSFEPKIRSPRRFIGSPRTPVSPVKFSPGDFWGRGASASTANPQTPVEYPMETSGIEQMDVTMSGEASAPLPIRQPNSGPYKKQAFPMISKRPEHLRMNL

As to `CC(C)Cc1nc(-c2ccc3[nH]nc(-c4ccc5cc(OCCN6CCCC6)ccc5c4)c3c2)n[nH]1` [CC002, 5-(5-Isobutyl-1H-[1,2,4]Triazol-3-yl)-3-[6-(2-Pyrrolidin-1-yl-Ethoxy)-Naphthalen-2-yl]-1H-Indazole], the “Inhibitory activity (% of control), Blk(m)” value at Blk(m) was 11 % of control. The “Inhibitory activity (% of control), p70S6K(h)” value at p70S6K(h) is 16 % of control. The “Inhibitory activity (% of control), PAK2(h)” value on PAK2(h) is reported as 21 % of control. The “Inhibitory activity (% of control), PDK1(h)” value on PDK1(h) is reported as 58 % of control. For the same molecule, the “Inhibitory activity (% of control), PRK2(h)” value at PRK2(h) is given as 4 % of control.

Turning to `CCN1CCC[C@H]1COc1ccc2cc(-c3n[nH]c4ccc(-c5nc(CC(C)(C)C)n[nH]5)cc34)ccc2c1` [CC005, 2-[((2s)-1-ethylpyrrolidin-2-yl)methoxy]-6-{5-[3-(2,2-Dimethylpropyl)(1H-1,2,4,-triazol-5-yl)](1H-indazol-3-yl)}naphthalene], on Blk(m), the “Inhibitory activity (% of control), Blk(m)” value is listed as 4 % of control. For the same molecule, the “Inhibitory activity (% of control), p70S6K(h)” value on p70S6K(h) is 3 % of control. In addition, on PAK2(h), the “Inhibitory activity (% of control), PAK2(h)” value is listed as 13 % of control. In addition, on PDK1(h), the “Inhibitory activity (% of control), PDK1(h)” value was 59 % of control. At PRK2(h), the “Inhibitory activity (% of control), PRK2(h)” value is 1 % of control.

As for `Fc1ccc(-c2n[nH]c3ccc(-c4n[nH]c(C5CCCC5)n4)cc23)cc1` [CC006, 5-(5-Cyclopentyl-1H-[1,2,4]triazol-3-yl)-3-(4-fluoro-phenyl)-1H-indazole, reference compound], the “Inhibitory activity (% of control), Blk(m)” value at Blk(m) is on record as 60 % of control. Also, the “Inhibitory activity (% of control), p70S6K(h)” value at p70S6K(h) is 41 % of control. Besides, at PAK2(h), the “Inhibitory activity (% of control), PAK2(h)” value was 56 % of control. The “Inhibitory activity (% of control), PDK1(h)” value at PDK1(h) is 43 % of control. Besides, the “Inhibitory activity (% of control), PRK2(h)” value at PRK2(h) is listed as 24 % of control.

`COc1ccc2cc(-c3n[nH]c4ccc(-c5n[nH]c(CN6CCOCC6)n5)cc34)ccc2c1` [CC001, 3-(6-Methoxynaphthalen-2-yl)-5-(5-Morpholin-4-Ylmethyl-1H-[1,2,4]Triazol-3-yl)-1H-Indazole]: the “Inhibitory activity (% of control), Blk(m)” value at Blk(m) is on record as 25 % of control. The “Inhibitory activity (% of control), p70S6K(h)” value on p70S6K(h) is reported as 17 % of control. Besides, the “Inhibitory activity (% of control), PAK2(h)” value at PAK2(h) is 68 % of control. For the same molecule, the “Inhibitory activity (% of control), PDK1(h)” value on PDK1(h) is on record as 59 % of control. The “Inhibitory activity (% of control), PRK2(h)” value at PRK2(h) is 9 % of control.

Consider `CC(C)(C)Cc1nc(-c2ccc3[nH]nc(-c4ccc5cc(OCc6ccccn6)ccc5c4)c3c2)n[nH]1` [CC004, 5-[5-(2,2-Dimethyl-propyl)-1H-[1,2,4]triazol-3-yl]-3-[6-(pyridine-2-ylmethoxy)-naphthalen-2-yl]-1H-indazole], for which, on Blk(m), the “Inhibitory activity (% of control), Blk(m)” value is recorded as 43 % of control. The “Inhibitory activity (% of control), p70S6K(h)” value on p70S6K(h) is listed as 40 % of control. Besides, the “Inhibitory activity (% of control), PAK2(h)” value on PAK2(h) was 62 % of control. Moreover, the “Inhibitory activity (% of control), PDK1(h)” value on PDK1(h) is given as 70 % of control. The “Inhibitory activity (% of control), PRK2(h)” value at PRK2(h) is reported as 3 % of control.

Regarding `O=C(NC1CCCC1)c1cccc(-c2n[nH]c3ccc(-c4nc[nH]n4)cc23)c1` [CC007, 3-(5-(1H-1,2,4-triazol-3-yl)(1H-indazol-3-yl))phenyl-N-cyclopentylcarboxamide, reference compound], on Blk(m), the “Inhibitory activity (% of control), Blk(m)” value is 76 % of control. Moreover, the “Inhibitory activity (% of control), p70S6K(h)” value at p70S6K(h) was 83 % of control. Moreover, at PAK2(h), the “Inhibitory activity (% of control), PAK2(h)” value was 86 % of control. For the same molecule, the “Inhibitory activity (% of control), PDK1(h)” value at PDK1(h) is reported as 97 % of control. Besides, the “Inhibitory activity (% of control), PRK2(h)” value at PRK2(h) is listed as 68 % of control.

Source of the values: US20050107386A1, “Methods of treating diseases and disorders by targeting multiple kinases” (priority 2003, published 2005).
